Laboratory results published in paper PMC6950563, “Epinecidin-1 Protects against Methicillin Resistant Staphylococcus aureus Infection and Sepsis in Pyemia Pigs” (Marine Drugs, 2019).
Read-outs that look alike come from different tables or passages of the source. Residues, ends and D or L forms follow the SMILES beside them.

Assays:
[1] = in vivo; details: pig, iv
Experimental: (§1) Approximately 3 mL of blood was taken from the carotid artery at 0, 10, 20, 30, and 60 minutes and at 60 minutes intervals thereafter until 600 minutes had passed.

[2] = 25% human serum in RPMI, 37 °C, LC-MS/MS
Experimental: Human serum (catalogue number BP2657100, Fisher Scientific, Millersburg, PA, USA) was suspended in RPMI medium up to 25%, and 0.990 mL was transferred to a 1.5 mL micro centrifuge tube. The serum-containing tube was incubated at 37 °C for 15 min, and 10 mg/mL Epi-1 was added to obtain a final peptide concentration of 100 μg/mL. At constant time intervals 100 μL of the experimental mix was taken out, and serum protein was precipitated in two volumes of 95% ethanol solution. The cloudy precipitate was cooled at 4 °C for 15 min, and then the serum was precipitated and pelleted by centrifugation at 18,000 × g for 2 min. The peptide stability in the supernatant was then analyzed by a liquid chromatography tandem mass spectrometer (LC-MS/MS) (Mission Biotech, Taipei, Taiwan).

[3] = Acute intravenous toxicity in pigs; assay type: in vivo, pig
Experimental: Acute intravenous (i.v.) toxicity was analyzed as described previously. Acute i.v. toxicity was assessed after administration of 25, 50, 100, and 200 mg/kg body weight of Epi-1 in pigs; 1 to 5 animals per group. After injection, the animals were kept under visual observation up to 1 h, and the rate of mortality and clinical symptoms were recorded every 2 h for a total of 24 h. For blood analysis, 5 mL of heparin-stabilized blood was taken and stored at 4 °C. Serum was separated from the blood sample using a serum separator gel tube (catalogue number 367955, Becton-Dickinson, Franklin Park, NJ, USA), according to the vendor’s instructions. Serum GOT, GPT, UA, BUN, and CRT activity levels were determined using an automated analyzer (FUJI DRI-CHEM 4000i, Fujifilm, Tokyo, Japan) according to the manufacturers’ instructions. Standard controls were analyzed before each determination.

[4] = tested on: MRSA; assay type: cell-based, Staphylococcus aureus; details: for pathogens killed (time-kill): 4 h
Experimental: At 4, 8, 12, and 24 h post-treatment, the number of viable bacteria (CFU) was determined for the time-kill experiment.

[5] = pigs
Experimental: as §1

[6] = tested on: MRSA; experiment: Survival of MRSA-infected pyemia pigs; assay type: in vivo, pig
Experimental: Administration of bacteria or mock treatment followed by flushing with 5 mL of sterile isotonic saline was performed by i.v. through a 22G catheter inserted in the right femoral vein. The catheter was removed after administration. Another 22G catheter was then inserted into the left femoral vein and secured with stitches. The catheter was flushed with 10 mL sterile isotonic saline solution, and then with 2 mL of 100 I.U./mL sterile heparin solution (catalogue number H3149, Sigma Chemical Co., St. Louis, MO, USA) for blood sampling. During blood sampling, the initial 5 mL of blood was discarded to avoid the heparin carryover. Five pigs were inoculated with the MRSA strain (1 × 10^9 CFU/kg) only. […] Samples were subsequently collected for histopathology, microbial studies, and bacterial count.

[7] = tested on: MRSA; experiment: Histopathology (H&E) of major organs of infected pigs; assay type: in vivo, pig; details: vancomycin 0.5 mg/kg, day 7
Experimental: Tissue samples from the heart valve, left diaphragmatic lobe of the lung, left lateral lobe of the liver, and left kidney were collected and fixed in PBS buffer containing 4% formaldehyde for 24 h. Fixed samples were immersed in different concentrations of xylene and ethanol before embedding in paraffin. The processed samples were sectioned at 8–10 µm using a microtome. The sections were stained for histological analysis with hematoxylin and eosin (H&E) after rehydration.

[8] = pig, Epi-1 200 mg/kg single i.v., n=1, died in one hour after injection

## CC[C@H](C)[C@H](NC(=O)[C@H](CCSC)NC(=O)[C@H](CCCCN)NC(=O)CNC(=O)[C@H](C)NC(=O)[C@H](Cc1c[nH]cn1)NC(=O)[C@H](Cc1ccccc1)NC(=O)[C@H](CC(C)C)NC(=O)CNC(=O)[C@H](CCCCN)NC(=O)[C@@H](NC(=O)[C@@H](NC(=O)[C@H](Cc1c[nH]cn1)NC(=O)[C@H](Cc1ccccc1)NC(=O)[C@@H](NC(=O)[C@H](Cc1ccccc1)NC(=O)CN)[C@@H](C)CC)[C@@H](C)CC)[C@@H](C)CC)C(=O)N[C@@H](Cc1c[nH]cn1)C(=O)NCC(=O)N[C@@H](CC(C)C)C(=O)N[C@H](C(N)=O)C(C)C [Epi-1, epinecidin-1] (H-GFIFHIIKGLFHAGKMIHGLV-NH2)
[1]; plasma
  half-life: ~4 h
[1]; serum, 0.5 mg/kg
  level at 5 h: 2920 ± 957 ng/mL
[1]; serum, 1.5 mg/kg
  level at 10 min: 9061 ± 60 ng/mL
  level at 5 h: 3780 ± 219 ng/mL
[1]; serum, 2.5 mg/kg
  level at 5 h: 8880 ± 205 ng/mL
[2]; 15 min pre-incubation, nominal 100 µg/mL, ethanol precipitation, start, mean ± SEM, three independent experiments
  concentration of free Epi-1 in serum, initial: 7360 ± 300 ng/mL
[2]
  time up to which the free Epi-1 concentration did not change (after the initial 30 min): up to 7 h
[2]; Figure 2C
  time for which Epi-1 was stable in human serum in vitro: up to 400 min
[2]; nominal 100 µg/mL, ethanol precipitation, 30 min, mean ± SEM, three independent experiments
  concentration of free Epi-1 in serum after the initial 30 min: 5940 ± 120 ng/mL
[3]; [8]
  BUN: Died
  CRE: Died
  GOT: Died
  GPT: Died
  Serum UA: Died
[3]; single i.v. injection, piglets starved 12 h, observed every 2 h up to 24 h
  doses that did not cause abnormal behavior, mortality, or activity: up to 100 mg/kg
[4]; 1
  pathogens killed (time-kill): 90%
[4]; 2
  pathogens killed (time-kill): 90%
[5]; i.v.
  time post i.v. injection up to which Epi-1 is stable in serum: up to 4 h
  time post-injection up to which Epi-1 was detected in serum: up to 240 min

## CN[C@H](CC(C)C)C(=O)N[C@H]1C(=O)N[C@@H](CC(N)=O)C(=O)N[C@H]2C(=O)N[C@H]3C(=O)N[C@H](C(=O)N[C@H](C(=O)O)c4cc(O)cc(O)c4-c4cc3ccc4O)[C@H](O)c3ccc(c(Cl)c3)Oc3cc2cc(c3O[C@@H]2O[C@H](CO)[C@@H](O)[C@H](O)[C@H]2O[C@H]2C[C@](C)(N)[C@H](O)[C@H](C)O2)Oc2ccc(cc2Cl)[C@H]1O [vancomycin]
[4]; at 24 h, about 1 × 10^6 cells, Figure 1B
  killing of MRSA: 95%
[5]; vancomycin 0.5 mg/kg i.v., up to 360 min, LC-MS-MS, Supplementary Figure S1
  course of the serum concentration of vancomycin: very stable
[6]; MRSA 1 × 10^9 CFU/kg i.v., vancomycin 0.5 mg/kg i.v. 30 min post-infection, 7 days
  survival against MRSA infection: 80%
[6]; MRSA 10^9 CFU/kg i.v., vancomycin 0.5 mg/kg, n=5
  Survival Rate (Day PI): 80
[7]
  Heart: infective endocarditis (animals with clinical signs/total examined): 0/5
  Kidney: cystic tubules, cortical (animals with clinical signs/total examined): 0/5
  Liver: liver abscess (animals with clinical signs/total examined): 1/5
  Lung: inflammation, pulmonary edema (animals with clinical signs/total examined): 2/5
